Assay results published in patent US6632807B1, “(2R,4S)-(−)-[N-(4-diethoxyphosphorylmethyl)phenyl]-1,2,4,5- tetrahydro-4-methyl-7,8-methylenedioxy-5-oxo-3-benzothiepin-2-carboxamide” (Takeda Chemical Industries, Ltd., priority 1994, dated 2003).

Experiments:
[1] = test system: stromal cells prepared from the femoral bone marrow of a normal rat; assay: Osteogenesis-promoting action: alkaline phosphatase activity in rat bone marrow stromal cells; type: cell-based; conditions: 10 to 14 days cultivation, mean ±SE, control 113.7 ± 8.1
Method: Using stromal cells prepared from the femoral bone marrow of a normal rat, alkaline phosphatase activity was determined as an index of osteogenesis. Specifically, stromal cells, prepared from the femoral bone marrow of a 7-week-old male Sprague-Dawley rat by the method of Maniatopoulos et al. [Cell Tissue Research, Vol. 254, p. 317 (1988)], were cultured in an α-MEM (minimum essential medium) solution containing both dexamethasone (10^−7 M) and β-glycerophosphoric acid (10^−2 M) to obtain mineralized bone-like tissue. One week later, the test compound (10^−6 M or 10^−5 M) was added to the confluent cells, followed by 10 to 14 more days of cultivation in the above culture broth. After washing with phosphate buffer, the cells were homogenized with 0.2% Nonidet P-40 and centrifuged at 3,000 rpm for 10 minutes. The resulting supernatant was assayed for alkaline phosphatase activity by the method of Lowry et al. [Journal of Biological Chemistry, Vol. 207, p. 19 (1954)]. The values obtained are given in mean ±SE in Table 1. The data were statistically analyzed by Student's t-test.

melting point | SMILES | Alkaline Phosphatase Activity ([1]; test compound 10^−5 M) | Alkaline Phosphatase Activity ([1]; test compound 10^−6 M)
 | CCOP(=O)(Cc1ccc(NC(=O)[C@H]2Cc3cc4c(cc3C(=O)[C@H](C)S2)OCO4)cc1)OCC [Example 1, (2R,4S)-(−)-N-[4-(Diethoxyphosphorylmethyl)phenyl]-1,2,4,5-tetrahydro-4-methyl-7,8-methylenedioxy-5-oxo-3-benzothiepin-2-carboxamide] | 1635.5 ± 169.7 nmol p-nitrophenol/min/well | 682.5 ± 123.2 nmol p-nitrophenol/min/well
183 to 184 °C | CCOP(=O)(Cc1ccc(NC(=O)[C@@H]2Cc3cc4c(cc3C(=O)[C@@H](C)S2)OCO4)cc1)OCC |  | 
198 to 199 °C | COP(=O)(Cc1ccc(NC(=O)[C@H]2Cc3cc4c(cc3C(=O)[C@H](C)S2)OCO4)cc1)OC |  | 
